Results published in patent US9145376B2, “Quinazolinone inhibitors of dynein” (The Rockefeller University, priority 2011, dated 2015).

What was measured:
Format in all cases: cell-based
[1] = system: ciliary Gli2 in Shh-EGFP cells; assay: Quantitative assessment of Hh ligand-dependent Gli2 trafficking; details: 30 μM, 4 hours; for basal Gli2 concentrations in the primary cilium: without Shh-N; for Basal and Shh-N-induced levels of ciliary Gli2: with or without 10% Shh-N-conditioned medium
Experimental: Shh-EGFP cells were seeded into 24-well plates containing poly-D-lysine-coated 12-mm glass coverslips at a density of 65,000 cells/well and cultured for 24 hours in DMEM containing 10% calf serum, 100 U/mL penicillin, and 0.1 mg/mL streptomycin. The cells were then transferred into DMEM containing 0.5% calf serum and the antibiotics described above for 16 hours to promote primary cilia formation. The cells were next transferred into DMEM containing 0.5% calf serum, antibiotics, and either individual compounds at a 30 μM concentration or 0.3% DMSO. Each compound or vehicle treatment was conducted in the presence or absence of 10% Shh-N-conditioned medium, and the cells were cultured under these conditions for 4 hours. The cells were subsequently fixed in PBS containing 4% paraformaldehyde for 10 minutes at room temperature, washed 3×5 minutes in PBS containing 50 mM glycine, permeabilized in PBS containing 0.3% Triton X-100 […], and then blocked overnight at 4° C. in PBS containing 5% normal donkey serum, 0.1% Triton X-100, and 0.05% sodium azide. After blocking was complete, the coverslips were incubated in blocking buffer containing rabbit polyclonal anti-Arl13b antibody (1:3000 dilution), goat polyclonal anti-Gli2 antibody (1:50 dilution; R & D Systems, AF3635), and mouse monoclonal anti-γ-tubulin (1:200 dilution; Sigma-Aldrich, T5326) for 90 minutes at room temperature. The cells were then washed 4×5 minutes with PBS containing 0.1% Triton X-100 and incubated in blocking buffer containing DyLight 488-conjugated donkey polyclonal anti-goat IgG antibody (3 μg/mL; Jackson ImmunoResearch, 705-485-147), DyLight 594-conjugated donkey polyclonal […] IgG antibody (3 μg/mL; Jackson ImmunoResearch, 715-515-151), and DyLight 649-conjugated donkey polyclonal […] IgG antibody (3 μg/mL; Jackson ImmunoResearch, 711-495-152) for 60 minutes. Following, this secondary antibody incubation, nuclei were stained by incubating the cells 2×10 minutes with PBS containing 0.1% Triton X-100 and 0.5 μg/mL DAPI and washing them 2×5 minutes with PBS. The coverslips were subsequently mounted onto slides using Prolong Gold Antifade Reagent (Invitrogen) and imaged using a Plan Apochromat 63×/1.4 NA oil immersion objective on a Zeiss Axio1mager Z1 upright microscope equipped with an LSM700 laser scanning confocal head. Ciliary Gli2 levels were quantified by determining total pixel intensity within a 0.69 μm-diameter circle at the distal tip of the axoneme and subtracting background fluorescence in an adjacent region of equivalent size. At least 25 cilia were analyzed to determine the average ciliary Gli2 level for each experimental condition.

[2] = system: Hh pathway (Gli-responsive firefly luciferase reporter in Shh-LIGHT2 cells); assay: Shh-LIGHT2 assay for Hh pathway activity; details: 10% Shh-conditioned medium, 24 hours, firefly/Renilla luciferase ratio
Experimental: Shh-N-conditioned medium was prepared as described by Chen et al., Proc. Natl. Acad. Sci. U.S.A. 99, 14071 (2002). Shh-LIGHT2 cells [J. Taipale et al., Nature 406, 1005 (2000)], an NIH-3T3-based cell line containing a stably integrated Gli-responsive firefly luciferase reporter and a constitutive thymidine kinase promoter-driven Renilla luciferase expression construct (pRLTK, Promega), were cultured in DMEM containing 10% calf serum. 100 U/mL penicillin, and 0.1 mg/mL streptomycin. The cells were seeded into 96-well plates at a density of 30,000 cells/well, and the following day they were treated with individual compounds or DMSO in DMEM containing 0.5% calf serum, 10% Shh-conditioned medium, and the antibiotics described above. After being cultured for another 24 hours, the cells were lysed and their firefly and Renilla luciferase activities were determined using, a dual luciferase reporter kit (Promega) and a microplate luminometer (Veritas). Average values representing the firefly luciferase/Renilla luciferase ratio from triplicate samples were used to construct dose response profiles for each compound. Dose-response data from three separate experiments were independently curve-fitted with a variable slope, sigmoidal dose-response algorithm using Prism software, and the resulting IC50 values were used to generate an average IC50 for each compound.

[3] = system: mitotic spindle of Shh-EGFP (NIH-3T3) cells (cytoplasmic dynein 1); assay: Imaging of mitotic spindle assembly; details: 50 μM, 60 minutes, MG132-arrested cells
From the text: In addition to trafficking macromolecules out of the primary cilium, cytoplasmic dynein complexes have other cellular functions. For example, cytoplasmic dynein 1 acts in concert with dynactin and the nuclear protein NuMA to crosslink and focus the minus ends of microtubules within the mitotic spindle. These actions create the canonical fusiform shape and localize γ-tubulin-containing, microtubule-nucleating complexes to the spindle poles. Cytoplasmic dynein 1 inhibition by blocking antibodies or dominant negative constructs disrupts mitotic spindle assembly, resulting in splayed microtubule ends and reduced γ-tubulin recruitment. To determine whether ciliobrevins can recapitulate these phenotypes, we treated a metaphase-enriched population of NIH-3T3 cells with 50 μM of either example 31 or […] for one hour and examined their mitotic structures by confocal immunofluorescence microscopy.
Shh-EGFP cells were cultured until they achieved approximately 70% confluency and then split 1:5 into 24-well plates containing, poly-D-lysine-coated 12-mm glass coverslips in DMEM containing 10% calf serum, 100 U/mL penicillin, and 0.1 mg/mL streptomycin. […]

N#C/C(C(=O)c1ccc(Cl)cc1Cl)=C1\NC(=O)c2ccccc2N1 [Example 1, 3-(2,4-dichlorophenyl)-3-oxo-2-(4-oxo-3,4-dihydroquinazolin-2(1H)-ylidene)propanenitrile]
basal Gli2 concentrations in the primary cilium [1]: increased basal Gli2 concentrations in this signaling organelle to levels comparable to that induced by Shh-N | IC50 [2]: 9.9 µM

N#C/C(C(=O)c1ccc(Cl)cc1)=C1\NC(=O)c2ccccc2N1 [Example 2, 3-(4-chlorophenyl)-3-oxo-2-(4-oxo-3,4-dihydroquinazolin-2(1H)-ylidene)propanenitrile]
Basal and Shh-N-induced levels of ciliary Gli2 [1]: unchanged | IC50 [2]: 5.2 µM

N#C/C(C(=O)c1ccccc1)=C1\NC(=O)c2ccccc2N1 [Example 16, 3-oxo-2-(4-oxo-3,4-dihydroquinazolin-2(1H)-ylidene)-3-phenylpropanenitrile]
Basal and Shh-N-induced levels of ciliary Gli2 [1]: unchanged | mitotic spindle morphology (γ-tubulin-positive pole focusing) [3]: normal spindle morphologies | IC50 [2]: 23 µM

N#C/C(C(=O)c1ccc(Cl)cc1Cl)=C1\NC(=O)c2ccc(Cl)cc2N1 [Example 31, 2-(7-chloro-4-oxo-3,4-dihydroquinazolin-2(1H)-ylidene)-3-(2,4-dichlorophenyl)-3-oxo-propanenitrile]
basal Gli2 concentrations in the primary cilium [1]: increased basal Gli2 concentrations in this signaling organelle to levels comparable to that induced by Shh-N | mitotic spindle morphology (γ-tubulin-positive pole focusing) [3]: failed to achieve mitotic spindles with focused γ-tubulin-positive poles | IC50 [2]: 15 µM
